Reference: ChEMBL document CHEMBL1155987, “2,3,4,5-Tetrahydro-1H-pyrido[2,3-b and e][1,4]diazepines as inhibitors of the bacterial enoyl ACP reductase, FabI” (Bioorg Med Chem Lett, 2009)
In brackets after ≈: the same amount, converted by molar mass. Activity calls are given as the source filed them. The rule behind the calls is not given here.

Tests used:
[1] = tested on: Staphylococcus aureus; experiment: microbe, parasite or virus in culture; conditions: 43300
Description: Antibacterial activity against methicillin-resistant Staphylococcus aureus 43300 by microdilution method

[2] = physchem; conditions: aqueous, pH 7.4
Description: Aqueous solubility at pH 7.4

[3] = physchem; conditions: aqueous, pH 4
Description: Aqueous solubility at pH 4.0

[4] = biological target: T1, Enoyl-[acyl-carrier-protein] reductase [NADH] FabI (Escherichia coli K-12, UniProt P0AEK4)
T1 sequence (P0AEK4 whole entry): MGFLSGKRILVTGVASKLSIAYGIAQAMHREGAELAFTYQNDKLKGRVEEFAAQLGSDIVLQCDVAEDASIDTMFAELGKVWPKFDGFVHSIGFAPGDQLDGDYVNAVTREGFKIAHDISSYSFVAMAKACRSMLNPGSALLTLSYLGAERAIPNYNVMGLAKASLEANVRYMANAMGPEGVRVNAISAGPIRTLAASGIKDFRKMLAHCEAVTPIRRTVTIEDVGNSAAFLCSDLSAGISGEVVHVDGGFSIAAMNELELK
Description: Inhibition of Escherichia coli FabI

[5] = tested on: Staphylococcus aureus; experiment: microbe, parasite or virus in culture; conditions: 29213
Description: Antibacterial activity against Staphylococcus aureus 29213 by microdilution method

[6] = tested on: Staphylococcus aureus; experiment: microbe, parasite or virus in culture; conditions: 934335
Description: Antibacterial activity against triclosan-resistant Staphylococcus aureus 934335 by microdilution method

[7] = tested on: Escherichia coli; experiment: microbe, parasite or virus in culture
Description: Antibacterial activity against Escherichia coli efflux pump mutant by microdilution method

[8] = tested on: Staphylococcus aureus; experiment: Antibacterial activity against Staphylococcus aureus 29213 infected neutropenic mouse thigh model assessed as change in CFU at 100 mg/kg, po after 24 hrs; type: functional, organism-based; set-up: dose 100 mg/kg

SMILES | MIC [1] | solubility [2] | solubility [3] | IC50 [4] | MIC [5] | MIC [6] | MIC [7] | Activity [8]
Cc1c(CN(C)C(=O)/C=C/c2cnc3c(c2)CNC(=O)CCN3)oc2ccccc12 | 0.031 µg/mL (≈ 0.0766 µM) | 17 µg/mL (≈ 42 µM) | 46 µg/mL (≈ 114 µM) | 30 nM | ≤ 0.016 µg/mL | 0.5 µg/mL (≈ 1.24 µM) | ≤ 0.063 µg/mL | 
Cc1c(CN(C)C(=O)/C=C/c2cnc3c(c2)NCCC(=O)N3)oc2ccccc12 | ≤ 0.016 µg/mL | 1.7 µg/mL (≈ 4.35 µM) | 1.5 µg/mL (≈ 3.84 µM) | 25 nM | ≤ 0.016 µg/mL | ≤ 0.016 µg/mL | ≤ 0.063 µg/mL | 
Cc1c(CN(C)C(=O)/C=C/c2cnc3c(c2)CNCC(=O)N3)oc2ccccc12 | ≤ 0.063 µg/mL | 20 µg/mL (≈ 51.2 µM) | 170 µg/mL (≈ 435 µM) | 29 nM | ≤ 0.063 µg/mL | 0.125 µg/mL (≈ 0.32 µM) | ≤ 0.063 µg/mL | 
Cc1c(CN(C)C(=O)/C=C/c2cnc3c(c2)CCC(=O)N3)sc2ccccc12 | ≤ 0.063 µg/mL | 0.3 µg/mL (≈ 0.766 µM) | 0.2 µg/mL (≈ 0.511 µM) | 64 nM | 0.125 µg/mL (≈ 0.319 µM) | 4 µg/mL (≈ 10.2 µM) | 4 µg/mL (≈ 10.2 µM) | 
Cc1c(CN(C)C(=O)/C=C/c2cnc3c(c2)CNC(=O)CN3)oc2ccccc12 | ≤ 0.063 µg/mL |  |  | 39 nM | ≤ 0.063 µg/mL | 4 µg/mL (≈ 10.2 µM) | ≤ 0.063 µg/mL | 
Cc1c(CN(C)C(=O)/C=C/c2cnc3c(c2)NCCC(=O)N3)[nH]c2ccccc12 | 0.063 µg/mL (≈ 0.162 µM) | 37 µg/mL (≈ 95 µM) | 39 µg/mL (≈ 100 µM) | 840 nM | 0.031 µg/mL (≈ 0.0796 µM) | 2 µg/mL (≈ 5.14 µM) | 4 µg/mL (≈ 10.3 µM) | 
Cc1c(CN(C)C(=O)/C=C/c2cnc3c(c2)CNCCN3)sc2ccccc12 | 0.031 µg/mL (≈ 0.079 µM) | 33 µg/mL (≈ 84.1 µM) | 100 µg/mL (≈ 255 µM) | 9 nM | ≤ 0.016 µg/mL | 2 µg/mL (≈ 5.1 µM) | ≤ 0.063 µg/mL | 
CN(Cc1cc2ccccc2n1C)C(=O)/C=C/c1cnc2c(c1)CNCC(=O)N2 | 0.125 µg/mL (≈ 0.321 µM) | 82 µg/mL (≈ 211 µM) | > 100 µg/mL | 330 nM | 0.125 µg/mL (≈ 0.321 µM) | 1 µg/mL (≈ 2.57 µM) | 1 µg/mL (≈ 2.57 µM) | Active
CN(Cc1cc2ccccc2n1C)C(=O)/C=C/c1cnc2c(c1)NCCC(=O)N2 | 0.125 µg/mL (≈ 0.321 µM) | 33 µg/mL (≈ 84.7 µM) | 25 µg/mL (≈ 64.2 µM) | 136 nM | 0.25 µg/mL (≈ 0.642 µM) | 1 µg/mL (≈ 2.57 µM) | 1 µg/mL (≈ 2.57 µM) | 
Cc1c(CN(C)C(=O)/C=C/c2cnc3c(c2)CNCCN3)oc2ccccc12 | 0.063 µg/mL (≈ 0.167 µM) | 440 µg/mL (≈ 1170 µM) | > 650 µg/mL | 14 nM | 0.063 µg/mL (≈ 0.167 µM) | 4 µg/mL (≈ 10.6 µM) | ≤ 0.063 µg/mL | 
CN1CC(=O)Nc2ncc(/C=C/C(=O)N(C)Cc3cc4ccccc4n3C)cc2C1 | 0.5 µg/mL (≈ 1.24 µM) | 9.7 µg/mL (≈ 24 µM) | 73 µg/mL (≈ 181 µM) |  | 4 µg/mL (≈ 9.91 µM) | 8 µg/mL (≈ 19.8 µM) | > 32 µg/mL | 
Cc1c(CN(C)C(=O)/C=C/c2cnc3c(c2)CNCCCN3)oc2ccccc12 | 0.5 µg/mL (≈ 1.28 µM) | 210 µg/mL (≈ 538 µM) | 1400 µg/mL (≈ 3590 µM) | 16 nM | 0.25 µg/mL (≈ 0.64 µM) | 8 µg/mL (≈ 20.5 µM) | 8 µg/mL (≈ 20.5 µM) | 
Cc1c(CN(C)C(=O)/C=C/c2cnc3c(c2)NCCCN3)oc2ccccc12 | 0.031 µg/mL (≈ 0.0823 µM) | 29 µg/mL (≈ 77 µM) | > 100 µg/mL | 12 nM | ≤ 0.016 µg/mL | 0.5 µg/mL (≈ 1.33 µM) | ≤ 0.063 µg/mL | 
Cc1c(CN(C)C(=O)/C=C/c2cnc3c(c2)NCCC(=O)N3)sc2ccc(F)cc12 | ≤ 0.016 µg/mL | 38 µg/mL (≈ 89.5 µM) | 31 µg/mL (≈ 73 µM) | 25 nM | ≤ 0.016 µg/mL | 0.125 µg/mL (≈ 0.294 µM) | 1 µg/mL (≈ 2.36 µM) | 
CN(Cc1cc2ccccc2n1C)C(=O)/C=C/c1cnc2c(c1)CCC(=O)N2 | 0.031 µg/mL (≈ 0.0828 µM) | 5.6 µg/mL (≈ 15 µM) | 6.2 µg/mL (≈ 16.6 µM) | 150 nM | ≤ 0.016 µg/mL | 0.5 µg/mL (≈ 1.34 µM) | ≤ 0.063 µg/mL | 
